The values below come from patent US8440625B2, “Secreted protein acidic and rich in cysteine (SPARC) as chemotherapeutic sensitizers” (University of British Columbia, priority 2006, dated 2013).

One series has as its system MIP/5FU cells. In words: Peptide assay, cell viability (MTS), 5FU resistant cells. It is filed as cell-based. Conditions: for cell viability / sensitivity to 5-FU: peptide 96 or 200 μg/ml plus 5-FU 500 μM, compared to 5-FU alone. As for the experimental part:
(§1) Resistant MIP101 cells were developed following long-term incubation with incremental concentrations of 5 fluorouracil (5-FU) (10-500 uM), irinotecan (CPT) (1-50 uM; Pharmacia), cisplatin (CIS) (1-100 uM) or etoposide (ETO) (0.1-5 uM: Sigma-Aldrich). The concentration of each agent was increased 10% every 2 weeks for a 6 month period.
(§2) Sensitive MIP 101 and resistant MIP/5FU cells were seeded at a density of 8,000 cells/well (96-well plate) in DMEM supplemented with 10% FBS, 1% penicillin/streptomycin. After incubation at 37° C. with 5% CO2 for 48 hrs, the media was removed and fresh serum-free conditioned medium (VP-SFM, Invitrogen) containing the peptide of interest was incubated for an additional 48 hrs in the presence or absence of 500 μM 5-FU. Cell viability was assessed by MTS assay.
(§3) Peptides were custom synthesized by Sigma. Peptides A, A1, A2, A3 were dissolved in 0.1% DMSO. Peptides B8, B14, B8-scramble and B14-scramble were dissolved in PBS. For the MTS cell viability assay, a dose response curve was obtained using a “high” peptide concentration of 200 μg/ml, and a “low” peptide concentration of […].
(§4) For the MTS assay, 3-(4,5-dimethylthiazol-2-yl)-5-(3-carboxy-methoxyphenyl)-2-(4-sulfophenyl)-2H-tetrazolium inner salt (MTS) and phenazine methosulfate (PMS), purchased from Promega (Madison, Wis.), were mixed in the proportions 2:0.92 μg/ml, and 25 μl of the mixture was added to each well. After incubation at 37° C. with 5% CO2 for 2 h, the absorbance of each well at 490 nm was measured in a 96-well plate reader (Versa Max, version 4.8, Molecular Devices Co.) according to the manufacturer's instructions. Cell viability was expressed as a percentage of control.

The test system of another series is MIP 101 cells. In words: Peptide assay, cell viability (MTS), 5FU sensitive cells. It is filed as cell-based. Conditions: for cell viability: 96 or 200 μg/ml. As for the experimental part: as §2, §3, §4
A further series deals with MIP/CPT cells. As to the kind of experiment: Transient transfection of SPARC fragments, cell viability (MTS) with irinotecan, resistant cells. Conditions: cells transfected with control (empty vector), 500 uM CPT-11. It is filed as cell-based. The procedure: Polynucleotide fragments corresponding to SEQ ID NO: 2, SEQ ID NO: 4 or SEQ ID NO: 6 were amplified by PCR and inserted into the pSecTag vector (Invitrogen), and verified by sequencing.
Colorectal cell lines MIP101 and MIP/CPT cells were maintained in Dulbecco's modified Eagle's medium (DMEM) (Invitrogen) supplemented with 10% fetal bovine serum (FBS) (Invitrogen), 1% penicillin/streptomycin (Invitrogen) at 37° C. and 5% CO2.
as §1
Transient transfections were performed as previously described (Tai TC et al., 2001. J Neurochem; 76:1851-9) Briefly, MIP 101 colorectal cancer cells and resistant MIP/CPT cells grown to 50-60% confluency in 96-well tissue culture plates were transfected with 1.0 μg of vector (control) or vector+SPARC fragments using PEI transfection (Tai, T. C. et al., 2002. Mol Pharmacol 61:1385-92). […] Cell proliferation was assessed by MTS assay (Promega). […]

The next series has as its system resistant tumours. The settings on record: protein administered; response of resistant tumours to 5-fluorouracil, irinotecan, cisplatin or etoposide; cited from earlier work.
The mark [1] stands for this setting: peptide alone, high concentration (200 μg/ml).
The mark [2] stands for this setting: peptide high concentration (200 μg/ml) in combination with 5-FU 500 μM.

“Also recorded” adds a separate entry of the source.

Turning to `O=c1[nH]cc(F)c(=O)[nH]1` [Peptide 5-FU, 5-fluorouracil, reference compound], in the series with MIP/5FU cells (5-FU alone (500 μM)), the cell viability result is on record as “greater viability; also recorded: no effect on cell viability”.

On to “A: first 17 amino acids of full length SPARC with additional N-terminal residues: ESALCLPPACLPLRVPSTMRAWLFFLLCLAGRALA (ESALCLPPACLPLRVPSTMRAWIFFLLCLAGRALA; listed as Homo sapiens)”, for which the “% cell viability” value with MIP 101 cells (setting [1]), in the series on MIP 101 cells (setting [2]), in the series on MIP/5FU cells (setting [1]) and with MIP/5FU cells (setting [2]) was “did not significantly affect” in each case.

On to “A1: first 17 amino acids of the full length SPARC protein: MRAWIFFLLCLAGRALA (listed as Homo sapiens) [Peptide A1]”, for which the “% cell viability” value with MIP 101 cells (setting [1]), in the series on MIP 101 cells (setting [2]), in the series with MIP/5FU cells (setting [1]) and in the series on MIP/5FU cells (setting [2]) was “did not significantly affect” in each case.

On to “B8-SCR: scrambled B8 negative control peptide QPLEAVQPTAVEEDAEVETTEEV (B8 scrambled) [Peptide B8-SCR, reference compound]”, for which the “% cell viability” value in the series with MIP 101 cells (setting [1]), with MIP 101 cells (setting [2]), in the series on MIP/5FU cells (setting [1]) and in the series with MIP/5FU cells (setting [2]) was “did not significantly affect” in each case.

“B14: SPARC peptide CQNHHCKHGKVCELDENNTPMCVCQDPTSCP (SEQ ID NO: 9) (listed as Homo sapiens) [Peptide B14]”: the cell viability entry is on record as “did not significantly affect viability” in the series on MIP 101 cells (peptide alone) and “did not significantly affect viability” in the series on MIP/5FU cells (peptide alone, 96 or 200 μg/ml). Besides, the “cell viability / sensitivity to 5-FU” value in the series on MIP/5FU cells is recorded as “cell viability decreased”.

Turning to “A3: first 17 amino acids of SPARC with additional N-terminal residues: CLPPACLPLRVPSTMRAWIFFLLCLAGRALA (listed as Homo sapiens) [Peptide A3]”, the “% cell viability” value with MIP 101 cells (setting [1]), with MIP 101 cells (setting [2]), in the series with MIP/5FU cells (setting [1]) and in the series with MIP/5FU cells (setting [2]) was “did not significantly affect” throughout.

Turning to “A2: first 17 amino acids of SPARC with additional N-terminal residues: ACLPLRVPSTMRAWIFFLLCLAGRALA (listed as Homo sapiens) [Peptide A2]”, the “% cell viability” value in the series with MIP 101 cells (setting [1]), with MIP 101 cells (setting [2]), in the series on MIP/5FU cells (setting [1]) and in the series with MIP/5FU cells (setting [2]) was “did not significantly affect” in each case.

As for “H-APQQEALPDETEVVEETVAEVTE-OH [Peptide B8]”, the cell viability entry in the series on MIP 101 cells (peptide alone) was “did not affect cell viability”; with MIP/5FU cells (peptide alone, 96 or 200 μg/ml) it was “did not affect cell viability”. Moreover, the “cell viability / sensitivity to 5-FU” value in the series on MIP/5FU cells was “increasing sensitivity of the resistant cells”.

For the molecule `CCc1c2c(nc3ccc(OC(=O)N4CCC(N5CCCCC5)CC4)cc13)-c1cc3c(c(=O)n1C2)COC(=O)[C@]3(O)CC` [CPT-11, irinotecan], the cell viability result in the series with MIP/CPT cells is “remained viable”.

B1: Secreted protein acidic and rich in cysteine (protein, listed as Homo sapiens)
chain: MRAWIFFLLCLAGRALAAPQQEALPDETEVVEETVAEVTEVSVGANPVQVEVGEFDDGAEETEEEVVAENPCQNHHCKHGKVCELDENNTPMCVCQDPTSCPAPIGEFEKVCSNDNKTFDSSCHFFATKCTLEGTKKGHKLHLDYIGPCKYIPPCLDSELTEFPLRMRDWLKNVLVTLYERDEDNNLLTEKQKLRVKKIHENEKRLEAGDHPVELLARDFEKNYNMYIFPVHWQFGQLDQHPIDGYLSHTELAPLRAPLIPMEHCTTRFFETCDLDNDKYIALDEWAGCFGIKQKDIDKDLVI
notes: 303 amino acid SPARC protein, also known as osteonectin
For the molecule B1, in the series with resistant tumours, the chemosensitizing activity result is reported as “chemosensitizing activity has been demonstrated”.
